According to patent US7923434B2, “Phosphole derivatives complexed with metals, and pharmaceutical uses thereof” (Centre National de la Recherche Scientifique, priority 2004, dated 2011):
Where a chain is given by its changes, count along the chain named.

Legend:
[1] = molecular target: T1, human GR (Homo sapiens, UniProt P00390); test: Test for reduction of GSSG by GR; assay type: biochemical; details: 100 μM GSSG; 10 min pre-incubation with 100 μM NADPH
T1 sequence (P00390 45-522 limits assumed): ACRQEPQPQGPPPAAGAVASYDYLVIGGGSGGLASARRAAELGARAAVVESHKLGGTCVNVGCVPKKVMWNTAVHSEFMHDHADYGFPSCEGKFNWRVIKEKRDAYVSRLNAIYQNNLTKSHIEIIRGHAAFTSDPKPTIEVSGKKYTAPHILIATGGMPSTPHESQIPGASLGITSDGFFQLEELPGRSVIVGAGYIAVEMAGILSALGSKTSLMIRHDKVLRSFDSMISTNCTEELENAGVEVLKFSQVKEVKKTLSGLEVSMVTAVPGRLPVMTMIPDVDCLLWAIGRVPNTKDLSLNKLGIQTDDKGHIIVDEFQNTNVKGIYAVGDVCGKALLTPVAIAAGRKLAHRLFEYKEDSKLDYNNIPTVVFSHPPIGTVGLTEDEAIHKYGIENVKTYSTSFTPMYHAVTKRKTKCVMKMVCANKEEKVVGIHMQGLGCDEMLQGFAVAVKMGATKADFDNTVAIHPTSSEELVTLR
From the text: (§1) The phosphole derivatives containing gold and platinum have been identified as powerful inhibitors of human GR and TrxR (see Table 1). With either the substrate TrxC72S, or DTNB, very low IC50 values at nanomolar level—quasi-stoichiometric reaction—were obtained with wild-type human TrxR. By contrast, the IC50 values with the Sec→Cys mutant were at least 1000 times higher, proving that the selenocysteine residue is the inhibition target of human TrxR. […] A reduction of these enzymes is necessary to complete the inhibition, which proves that the active site comprising the Cys/Cys residues in the GR or Cys/Sec in the TrxR is the inactivation site. The pre-reduction of these enzymes accelerates the inhibition. The reaction between the inhibitor and these enzymes is very rapid and not precisely measurable with standard enzymology techniques. […] This competition would probably not contribute to the irreversible enzymatic inactivation.

[2] = molecular target: T2, hTrxRSec→Cys (Homo sapiens, UniProt Q16881); test: Test for reduction of Trx (hTrxC72S) by TrxR, mutant hTrxR-Mut; assay type: biochemical; details: 20 μM hTrxC72S; 10 min pre-incubation with 100 μM NADPH; enzyme 1.8 μM
T2 sequence (Q16881 with tags, fused parts or gaps limits assumed): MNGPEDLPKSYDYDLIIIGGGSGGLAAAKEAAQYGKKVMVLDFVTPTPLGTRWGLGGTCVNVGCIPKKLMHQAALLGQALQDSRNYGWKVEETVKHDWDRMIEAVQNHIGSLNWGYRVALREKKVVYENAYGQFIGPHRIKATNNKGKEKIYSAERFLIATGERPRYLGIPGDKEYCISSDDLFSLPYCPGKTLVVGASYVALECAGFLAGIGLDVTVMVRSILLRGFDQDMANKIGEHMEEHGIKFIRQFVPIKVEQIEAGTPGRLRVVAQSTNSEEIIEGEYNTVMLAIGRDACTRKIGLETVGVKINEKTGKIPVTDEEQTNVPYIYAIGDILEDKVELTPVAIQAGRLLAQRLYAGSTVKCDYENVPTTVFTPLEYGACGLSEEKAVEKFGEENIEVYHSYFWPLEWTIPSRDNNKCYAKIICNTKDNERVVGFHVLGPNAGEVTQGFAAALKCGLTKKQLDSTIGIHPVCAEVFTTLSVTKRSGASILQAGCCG
From the text: as §1

[3] = molecular target: T1, human GR; test: Binding of (1) to human GR: titration and initial-speed kinetics
Procedure: The stoichiometry of binding of (1) to human GR was determined by titration. Based on these experiments, (1) binds very tightly to the binding site of the GSSG of each human GR sub-unit. […] Although numerous hydrophobic inhibitors of the human GR and of the GR of Plasmodium falciparum are bound in the cavity between the two sub-units of the dimer with a stoichiometry of 0.5 per sub-unit, this is not the case for the inhibitor (1). The stoichiometry of 1.25 equivalents of (1) per FAD or per sub-unit of human GR can be explained by the presence of a second molecule of (1) bound less tightly to another position in the human GR, confirming the 3D structure of the complex GR-(1). […] The inactivation mechanism of human GR therefore involves an S—Au(I)—S coordination and the loss of the phosphole ligand; • the second site for the metallo-phosphole (1) is the Cys284 exposed to the solvent, at 23 Å of the active site and located in a hydrophobic cavity. In this case, the sulphur atom of the Cys284 remains bound to the Au-phosphole entity. […]

[4] = molecular target: T3, WT hTrxR (Homo sapiens, UniProt Q16881); test: Test for reduction of DTNB by TrxR, wild type; assay type: biochemical; details: 3 mM DTNB; 10 min pre-incubation with 200 μM NADPH; enzyme 4.8 nM
T3 sequence (Q16881 151-649 limits assumed): T2 sequence (Q16881 with tags, fused parts or gaps limits assumed) with C498U
From the text: as §1

[5] = molecular target: T3, WT hTrxR; test: Test for reduction of Trx (hTrxC72S) by TrxR, wild type; assay type: biochemical; details: 20 μM hTrxC72S; 10 min pre-incubation with 100 μM NADPH; enzyme 24 nM
From the text: as §1

[6] = Tolerability in C6 glioma-bearing rats; assay type: in vivo, rat
Procedure: After confirmation of the tumour growth by MRI on day 9, the rats carrying tumours were treated by intravenous injection with the compound (1) at a concentration of 25 mg/kg (n=4). The tumour growth was compared to that of the non-treated control animals (n=4). The treatment commenced on day 9 and continued on days 11 and 13. On day 15 after the implantation of the tumour cells, all the rats were sacrificed by decapitation. Under these conditions, a 44% reduction of the tumour growth was observed between days 9 and 15 at a dose of compound (1) of 25 mg/kg of body weight compared with that of the control group (FIG. 1).

[7] = test system: DNA; test: Thermal DNA denaturation test; assay type: binding; details: tested between 0 and 20 μM
Procedure: In addition to its major activity on human disulphide reductases, glutathione reductase and thioredoxin reductase, the binding of complex (1) to DNA was measured in thermal DNA denaturation tests.

[8] = molecular target: T2, hTrxRSec→Cys; test: Test for reduction of DTNB by TrxR, mutant hTrxR-Mut; assay type: biochemical; details: 3 mM DTNB; 10 min pre-incubation with 200 μM NADPH; enzyme 90.6 nM
From the text: as §1

[9] = test system: NCH89 human glioblastoma cell line; test: BrdU in vitro proliferation test, NCH89; assay type: cell-based; details: BrdU incorporation
Procedure: (§2) Briefly, the tumour cells are cultured and duplicated in 96-well plates in RPMI 1640 medium containing 10% foetal calf serum and antibiotics (cell density: 7×10^3 cells). […] After 48 hours, the reagent 5-bromo-2′-deoxyuridine (BrdU) was added at the final concentration of 10 μM for an incubation period of 19 hours. […] Compound (7) (Au-triphenylphosphine chloride complex, (PPh3)AuCl) and nitrosourea 1,3-bis(2-chloroethyl)-1-nitrosourea (BCNU, carmustine) are positive controls already reported in the literature.

[10] = test system: NCH82 human glioblastoma cell line; test: BrdU in vitro proliferation test, NCH82; assay type: cell-based; details: BrdU incorporation
Procedure: as §2

[11] = test system: NCH37 human glioblastoma cell line; test: BrdU in vitro proliferation test, NCH37; assay type: cell-based; details: BrdU incorporation
Procedure: as §2

IC50 [1] [nM]	IC50 [2] [nM]	IC50 [4] [nM]	IC50 [5] [nM]	IC50 [8] [nM]	IC50 [9] [µM]	SMILES	other results
2	1400	1	7	2500		[Cl][Au][PH]1(c2ccccc2)C(c2ccccn2)=C2CCCCC2=C1c1cccs1 [Compound 2]	
400	2300	1	8	24000		[Cl][Pt-2]1([Cl])[n+]2ccccc2C2=C3CCCCC3=C(c3cccs3)[P+]21c1ccccc1 (centres unmarked) [Compound 4]	
					6.7 ± 0.3	c1ccc(-p2c(-c3ccccn3)c3c(c2-c2ccccn2)CCCC3)cc1 [Compound 5]	

More lines, now with the values behind:

SMILES	IC50 [1] [nM]	IC50 [2] [nM]	IC50 [4] [nM]	IC50 [5] [nM]	IC50 [8] [nM]	IC50 [9] [µM]	other results
[Cl][Au][PH]1(c2ccccc2)C(c2ccccn2)=C2CCCCC2=C1c1ccccn1 [Compound 1]	1	800	0.8	7	2500		Kd ([3]; kinetics at initial speed with 0.5-2.0 μM GSSG, read-out: disassociation constant Kd=Ki): 460 nM; stoichiometry of binding ([3]; titration, differences in extinction coefficient at selected wavelengths): 1.25 equivalents of (1) per FAD or per sub-unit of human GR; tolerability of the therapy ([6]; 25 mg/kg): well tolerated; death from treatment ([6]; 25 mg/kg i.v., C6 glioma rats): no animal died; total body weight, treated vs control ([6]; 25 mg/kg i.v., C6 glioma rats): no significant difference; binding to DNA: concentration from which active [7]: 1 µM
c1ccc(-p2c(-c3ccccn3)c3c(c2-c2cccs2)CCCC3)cc1 (centres unmarked) [Compound 6]						8.5 ± 0.5	
O=NN(CCCl)C(=O)NCCCl [carmustine, 1,3-bis(2-chloroethyl)-1-nitrosourea]						615 ± 38	IC50 [10]: 385 ± 25 µM; IC50 [11]: 300 ± 12 µM
